The text below walks through data of US7495147B2, “Neuregulin-1 transgenic mouse and methods of use” (deCODE genetics ehf., priority 2000, dated 2009).

The assay has as its system NRG1TM hypomorphic mice. Kind of assay: open field test of locomotor activity in NRG1TM hypomorphic mice and litter-mate controls. Format: in vivo, mouse. Conditions: litter-mate control (wild-type) mice; clozapine 1 mg/kg i.p. 25 min prior to testing. The protocol: Male NRG1TM hypomorphs, ErbB4 hypomorphs and litter-mate controls for each line were bred at Charles River Laboratories USA by crossing to a C57B16 background. They were shipped to the testing laboratory at PsychoGenics Inc. NY, USA (six weeks prior to behavioral testing) where they were housed in groups of 3-5 related mice per cage. The open field study was conducted when the male mice were 5 to 6 months of age. Group housed mice were brought into the experimental room and allowed to acclimate for one hour prior to testing. Each mouse was placed for 30 minutes in a square open field box (17×17×12 inch). Up to eight animals were tested at one time, one animal in each of eight arenas, under low lighting conditions (provided by a 15 watt red lamp). The automated infrared beam array system measured locomotion in the center and periphery of the test arena. Activity data were collected in 5 min intervals over the 30 min open field session and analyzed with a series of repeated measures analysis of variance (ANOVA) with session interval as a within-subject factor and genotype as a between-subject factor. Clozapine (1 mg/kg in 1% Tween 20, pH 6.0) was injected intraperitoneally (i.p.) 25 min before behavioral testing. Total activity data from the study with clozapine were analyzed with a two-tailed, Student's t-test. Naïve mice were used for these experiments. […]

Consider `CN1CCN(C2=Nc3cc(Cl)ccc3Nc3ccccc32)CC1` [Clozapine, clozapine], for which the “open field activity of litter-mate control mice” value is recorded as “no effect”.
